# Measured values: patent publication US8722849B2, “Polypeptides” (Novo Nordisk A/S, priority 2011, dated 2014)
# Starred links: 1 amine or outer side, 2 acyl side, 3 side chain; linkers in the order of their positions; H or OH if unused. Positions of bridges follow the written chain, without caps; N, C: chain ends. Residues, ends and D or L forms follow the SMILES beside them. Groups on a side chain read outwards from the residue. *: point of attachment. C20 diacid = O=C(O)CCCCCCCCCCCCCCCCCCC(=O)*; C18 diacid = O=C(O)CCCCCCCCCCCCCCCCC(=O)*; γGlu = O=C(O)[C@H](CCC(=O)[*:2])N[*:1]; AEEA = NCCOCCOCC(=O)O
# Legend:
# food intake = experiment: Assay (I) efficacy testing on appetite (food intake), ad libitum fed rat model; assay type: in vivo, Sprague Dawley (SD) rats; settings: 3 nmol/kg
# Procedure, shortened: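 Food consumption was logged per animal every hour up to 7 h and again at 24 h (occasionally 48 h) after a single 0.01–3 mg/kg dose, given sc, po or ip at dark-phase onset. Ad libitum fed SD rats, 200–250 g, kept on inverted light/dark cycle; vehicle group included, outliers removed by Grubbs test.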
# [1] = Assay (III) ThT fibrillation assay for physical stability; assay type: physicochemical
# Procedure, shortened: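 Freshly prepared formulations, pH-adjusted, with 1 μM ThT; four or eight replicates incubated at 37 °C under 960 rpm orbital shaking. Fluorescence (ex 444/em 485 nm) read every 20 min; […]. Peptide concentration measured by RP-HPLC before and after the run.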
SMILES,Food intake reduction 0-24 h 3 nmol/kg (%) (food intake),Food intake reduction 24-48 h 3 nmol/kg (%) (food intake),ThT pH 4.0 lag time ([1]; Table 8),ThT pH 4.0 lag time ([1]; ThT fibrillation assay),ThT pH 4.0 lag time (h) ([1]; ThT fibrillation assay),ThT pH 4.0 lag time ([1]; Table 9)
"CC[C@H](C)[C@H](NC(=O)[C@H](CCCCNC(=O)COCCOCCNC(=O)COCCOCCNC(=O)CC[C@H](NC(=O)CCCCCCCCCCCCCCCCC(=O)O)C(=O)O)NC(=O)CNC(=O)[C@H](Cc1ccccc1)NC(=O)[C@H](CC(N)=O)NC(=O)[C@H](CC(N)=O)NC(=O)[C@H](CO)NC(=O)[C@H](CO)NC(=O)[C@H](Cc1c[nH]cn1)NC(=O)[C@H](Cc1c[nH]cn1)NC(=O)[C@H](CC(C)C)NC(=O)[C@H](Cc1ccccc1)NC(=O)[C@H](CCC(=O)O)NC(=O)[C@H](C)NC(=O)[C@H](CC(C)C)NC(=O)[C@H](CCCNC(=N)N)NC(=O)[C@H](CCC(N)=O)NC(=O)[C@@H](NC(=O)[C@H](C)NC(=O)[C@@H]1CSSC[C@H](NC(=O)[C@@H](N)CCCCN)C(=O)N[C@@H](CC(N)=O)C(=O)N[C@@H]([C@@H](C)O)C(=O)N[C@@H](C)C(=O)N[C@@H]([C@@H](C)O)C(=O)N1)[C@@H](C)O)C(=O)N[C@@H](CC(C)C)C(=O)N1CCC[C@H]1C(=O)N1CCC[C@H]1C(=O)N[C@H](C(=O)N[C@@H](CC(N)=O)C(=O)N[C@H](C(=O)NCC(=O)N[C@@H](CO)C(=O)N[C@@H](CC(N)=O)C(=O)N[C@H](C(=O)N[C@@H](Cc1ccc(O)cc1)C(N)=O)[C@@H](C)O)C(C)C)[C@@H](C)O [Example 73, N-epsilon25-[2-(2-{2-[2-(2-{2-[(S)-4-Carboxy-4-(17-carboxyheptadecanoylamino)butyrylamino]ethoxy}ethoxy)acetylamino]ethoxy}ethoxy)acetyl]-[Glu14,His17,Lys25]-pramlintide] (H-KCNTATCATQRLAEFLHHSSNNFGK([AEEA-AEEA-γGlu-C18 diacid])ILPPTNVGSNTY-NH2; disulfide 2-7 (inferred); N-terminus and C-terminus assumed)",29%,2%,>45 h,>45 h,>45 h,
"CC[C@H](C)[C@H](NC(=O)[C@@H]1CCCN1C(=O)CNC(=O)[C@H](Cc1ccccc1)NC(=O)[C@H](CC(N)=O)NC(=O)[C@H](CC(N)=O)NC(=O)[C@H](CO)NC(=O)[C@H](CO)NC(=O)[C@H](Cc1c[nH]cn1)NC(=O)[C@H](CCCNC(=N)N)NC(=O)[C@H](CC(C)C)NC(=O)[C@H](Cc1ccccc1)NC(=O)[C@H](CCC(=O)O)NC(=O)[C@H](C)NC(=O)[C@H](CC(C)C)NC(=O)[C@H](CCCNC(=N)N)NC(=O)[C@H](CCC(N)=O)NC(=O)[C@@H](NC(=O)[C@H](C)NC(=O)[C@@H]1CSSC[C@H](NC(=O)[C@H](Cc2c[nH]cn2)NC(=O)CNC(=O)CC[C@H](NC(=O)CCCCCCCCCCCCCCCCCCC(=O)O)C(=O)O)C(=O)N[C@@H](CC(N)=O)C(=O)N[C@@H]([C@@H](C)O)C(=O)N[C@@H](C)C(=O)N[C@@H]([C@@H](C)O)C(=O)N1)[C@@H](C)O)C(=O)N[C@@H](CC(C)C)C(=O)N1CCC[C@H]1C(=O)N1CCC[C@H]1C(=O)N[C@H](C(=O)N[C@@H](CC(N)=O)C(=O)N[C@H](C(=O)NCC(=O)N[C@@H](CO)C(=O)N[C@@H](CC(N)=O)C(=O)N[C@H](C(=O)N1CCC[C@H]1C(N)=O)[C@@H](C)O)C(C)C)[C@@H](C)O [Example 89, N-alpha-[(S)-4-Carboxy-4-(19-carboxynonadecanoylamino)butyryl]-Gly-[His1,Glu14,Arg17,Pro37]-pramlintide] ({C20 diacid-γGlu}-GHCNTATCATQRLAEFLRHSSNNFGPILPPTNVGSNTP-NH2; disulfide 3-8 (inferred))",42%,23%,>45 h,>45 h,>45 h,>45 h
"CC[C@H](C)[C@H](NC(=O)[C@@H]1CCCN1C(=O)CNC(=O)[C@H](Cc1ccccc1)NC(=O)[C@H](CC(N)=O)NC(=O)[C@H](CC(N)=O)NC(=O)[C@H](CO)NC(=O)[C@H](CO)NC(=O)[C@H](Cc1c[nH]cn1)NC(=O)[C@H](Cc1c[nH]cn1)NC(=O)[C@H](CC(C)C)NC(=O)[C@H](Cc1ccccc1)NC(=O)[C@H](CCC(=O)O)NC(=O)[C@H](C)NC(=O)[C@H](CC(C)C)NC(=O)[C@H](CCCNC(=N)N)NC(=O)[C@H](CCC(N)=O)NC(=O)[C@@H](NC(=O)[C@H](C)NC(=O)[C@@H]1CSSC[C@H](NC(=O)[C@H](CCCNC(=N)N)NC(=O)CNC(=O)CC[C@H](NC(=O)CCCCCCCCCCCCCCCCCCC(=O)O)C(=O)O)C(=O)N[C@@H](CC(N)=O)C(=O)N[C@@H]([C@@H](C)O)C(=O)N[C@@H](C)C(=O)N[C@@H]([C@@H](C)O)C(=O)N1)[C@@H](C)O)C(=O)N[C@@H](CC(C)C)C(=O)N1CCC[C@H]1C(=O)N1CCC[C@H]1C(=O)N[C@H](C(=O)N[C@@H](CC(N)=O)C(=O)N[C@H](C(=O)NCC(=O)N[C@@H](CO)C(=O)N[C@@H](CC(N)=O)C(=O)N[C@H](C(=O)N1CCC[C@H]1C(N)=O)[C@@H](C)O)C(C)C)[C@@H](C)O [Example 101, N-alpha-[(S)-4-Carboxy-4-(19-carboxynonadecanoylamino)butyryl]-Gly-[Arg1,Glu14,His17,Pro37]-pramlintide] ({C20 diacid-γGlu}-GRCNTATCATQRLAEFLHHSSNNFGPILPPTNVGSNTP-NH2; disulfide 3-8 (inferred))",70%,90%,>45 h,>45 h,>45 h,>45 h
"CC[C@H](C)[C@H](NC(=O)[C@@H]1CCCN1C(=O)CNC(=O)[C@H](Cc1ccccc1)NC(=O)[C@H](CC(N)=O)NC(=O)[C@H](CCC(N)=O)NC(=O)[C@H](CO)NC(=O)[C@H](CO)NC(=O)[C@H](Cc1c[nH]cn1)NC(=O)[C@H](Cc1c[nH]cn1)NC(=O)[C@H](CC(C)C)NC(=O)[C@H](Cc1ccccc1)NC(=O)[C@H](CCC(=O)O)NC(=O)[C@H](C)NC(=O)[C@H](CC(C)C)NC(=O)[C@H](CCCNC(=N)N)NC(=O)[C@H](CCC(N)=O)NC(=O)[C@@H](NC(=O)[C@H](C)NC(=O)[C@@H]1CSSC[C@H](NC(=O)[C@H](CCCCN)NC(=O)CC[C@H](NC(=O)CCCCCCCCCCCCCCCCCCC(=O)O)C(=O)O)C(=O)N[C@@H](CC(N)=O)C(=O)N[C@@H]([C@@H](C)O)C(=O)N[C@@H](C)C(=O)N[C@@H]([C@@H](C)O)C(=O)N1)[C@@H](C)O)C(=O)N[C@@H](CC(C)C)C(=O)N1CCC[C@H]1C(=O)N1CCC[C@H]1C(=O)N[C@H](C(=O)N[C@@H](CC(N)=O)C(=O)N[C@H](C(=O)NCC(=O)N[C@@H](CO)C(=O)N[C@@H](Cc1c[nH]cn1)C(=O)N[C@H](C(=O)N[C@@H](Cc1ccc(O)cc1)C(N)=O)[C@@H](C)O)C(C)C)[C@@H](C)O [Example 117, N-alpha-[(S)-4-Carboxy-4-(19-carboxynonadecanoylamino)butyryl]-[Glu14,His17,Gln21,His35)-pramlintide] ({C20 diacid-γGlu}-KCNTATCATQRLAEFLHHSSQNFGPILPPTNVGSHTY-NH2; disulfide 2-7 (inferred); C-terminus assumed)",50%,35%,>45 h,>45 h,>45 h,>45 h
